The record followed here is publication PMC11814485, “Screening of homing and tissue-penetrating peptides by microdialysis and in vivo phage display” (Life Science Alliance, 2025).

One test concerns skin wounds. Put plainly: Homing of systemically administered FAM-peptides to mouse skin excision wounds and normal organs (anti-FAM staining, QuPath). It counts as in vivo, mouse (BALB/cJRj). Particulars: for localisation in skin wound / accumulation in normal organs: tail vein, 150 min; for localisation in skin wound: anti-FAM and anti-CD31 staining; for accumulation in normal organs: normal skin, heart, liver, lung, spleen, kidney, anti-FAM staining. As for the experimental part: We next studied homing of systemically administered CDD, CPK, and CYH peptides in mouse skin excision wounds at the peak of neovascularization, 7 d after wounding. The peptides were injected into the tail vein and allowed to circulate for 2.5 h. The systemically administered peptides were detected in the granulation tissue of the wounds outside of the blood vessels (Figs 2 and S4). […] In contrast, the peptides were undetectable in normal skin (Fig S5A), heart, liver, lung, and spleen (Fig S5B), except for strong signal related to peptide secretion from the kidney glomeruli (Fig S5B).
Figure 2. Microdialysis-captured peptides home to skin wounds and localize in granulation tissue. […] Six-mm-diameter full-thickness wounds were cut in the back skin of 8-wk-old male mice. After 7 d, the peptides or PBS was injected systemically (tail vein). The peptides were allowed to circulate for 150 min before the vasculature was thoroughly perfused. The wound tissue was fixed, and microscopic sections were stained with anti-FAM and hematoxylin. (A, B) Magnifications of areas marked in panel (A) are represented in panel (B) with adjacent sections stained with anti-CD31 to visualize the blood vessels. The scale bar is 500 μm for panel (A) and 125 μm for panel (B). Images are representative of two separate experiments, four mice in each peptide group.
Figure 3. Microdialysis-captured peptides home to skin wounds and penetrate blood–retina barrier in retinopathy. Systemically administered homing peptides CDD, CPK, and CYH accumulate in skin wounds and penetrate blood–retina barrier in retinopathy. Full-thickness wounds, 6 mm in diameter, in the back skin of 8-wk-old male mice were used. After 7 d, each peptide or PBS was injected into the tail vein. For retinopathy experiments, oxygen-induced retinopathy (OIR) was induced by placing mouse pups at day P7 in a hyperoxia chamber for 5 d. On P17, when the angiogenesis peaks in this OIR model, the peptides were injected into the tail vein. The peptides circulated for 150 min (wounds) and 120 min (OIR) before the vasculature was thoroughly perfused. The skin wounds and eyeballs were fixed, and histological samples stained with anti-FAM and hematoxylin. Peptide homing was quantified with the automated image analysis system. (A) Microdialysis-identified peptides home to skin wounds. […] (D) All three microdialysis-identified peptides also accumulate substantially in the vitreous in the OIR model. *P < 0.05, **P < 0.01, ***< 0.001. Each datapoint represents an individual wound, retina, or vitreous. N = 3 for skin wound, and N = 6 and N = 8 for normal and OIR retinas.
Male BALB/cJRj and diabetic male BKS(D)-Lepr^db/JOrlRj mice were used for the peptide homing experiment. The BALB/cJRj mice were 8 wk old and weighed 24–28 g. The BKS(D)-Lepr^db/JOrlRj mice were 14 wk old and weighed 45–58 g, and their blood sugar levels were over 33 mmol/liter. Four full-thickness circular wounds were created on a shaved and disinfected skin with a 6-mm-diameter biopsy punch and scissors under isoflurane anesthesia (Attane vet 1,000 mg/g; Piramal Critical Care B.V.) and buprenorphine analgesia (0.15 mg/kg; Vetergesic vet 0.3 mg/ml; Ceva Santé Animal). Seven days after the wounding, the homing experiment was performed. The animal use was accepted by the National Animal Ethics Committee of Finland on 12 September 2017 (ESAVI/6422/04.10.07/2017) and on 4 January 2022 (ESAVI/39175/2021).
BALB/cJRj and diabetic male BKS(D)-Lepr^db/JOrlRj mice with 7-d-old skin wounds were used for the peptide homing experiment. FAM-labeled peptides were dissolved in the PBS just before the experiment. 5 mg/kg (BALB/cJRj) or 1,5 mg/kg (BKS(D)-Lepr^db/JOrlRj) of each peptide (CAR, CDD, CPK, CYH, and a control peptide) in PBS or plain PBS (control) was injected on the tail vein under sevoflurane anesthesia. […]

The next test relates to diabetic skin wounds. Put plainly: Homing of FAM-peptides to skin wounds in diabetic mice. It counts as in vivo, mouse (BKS(D)-Lepr^db/JOrlRj). The note with it: 1.5 mg/kg systemically, 150 min, day 7 wound, anti-FAM staining, one animal with two wounds per group. From the text:
Next, we wanted to study the utility of the newly identified peptides as vehicles for targeting diabetic skin wounds. Compromised angiogenesis in diabetic wounds leads to deficient granulation tissue formation and poses an important hindrance to systemic drug delivery. BALB/cJRj and diabetic male BKS(D)-Lepr^db/JOrlRj mice were wounded and systemically dosed with fluorophore-labeled peptides 7 d after the skin wounding. For all tested peptides, we observed peptide accumulation in the granulation tissue where angiogenesis takes place (Fig S6).
Figure S6. Microdialysis-captured peptides home to skin wounds in diabetic mice. […] Full-thickness wounds 6 mm in diameter were cut in the back skin of 14-wk-old male diabetic mice. After 7 d, 1.5 mg/kg of each peptide or PBS was injected systemically. The CAR peptide was used as a control. The peptide circulated for 150 min before the vasculature was perfused. The wounds were fixed with 4% PFA in PBS, and microscopic sections were stained with anti-FAM and hematoxylin. (A) Images of entire wounds. (B) Magnifications of areas marked in (A) with anti-CD31 staining of the adjacent sections. (A, B) Scale bars are 500 μm for (A) and 125 μm for (B). Images are representative of one animal with two wounds in each group.
Male BALB/cJRj and diabetic male BKS(D)-Lepr^db/JOrlRj mice were used for the peptide homing experiment. The BALB/cJRj mice were 8 wk old and weighed 24–28 g. […]
After 24-h (or 4 h for eyeballs) fixation in 4% PFA, the tissues were rinsed in 70% EtOH and embedded in paraffin. To avoid autofluorescence, the peptides were detected by staining the sections with rabbit anti-FITC/-FAM (71-1900; Thermo Fisher Scientific, 1:400 BALB/cJRj and C57BL/6Rj or 1:100 BKS(D)-Lepr^db/JOrlRj) in Dako antibody diluent (Agilent) and Biocare Medical Rabbit on Rodent (RMR622H; Biocare Medical) with XM-Factor (XMF963C; Biocare Medical) as described previously ([Robinson et al, 2010]; [Urakami et al, 2011]; [Toba et al, 2014]; [Pemmari, et al, 2020b]). […]

Take “CDDYQQISC [FAM-labeled synthetic peptide …]”: the “accumulation in skin wounds relative to a control” value in the test with skin wounds (mouse day 7 wound, 5 mg/kg tail vein, 150 min circulation, anti-FAM positive area, N = 3) amounted to 12 fold. Moreover, the “localisation in skin wound” value in the test with skin wounds (mouse day 7 wound) is “accumulated in wound regions containing blood vessels and in surrounding extravascular granulation tissue”. For the same sequence, the “accumulation in normal organs” value in the test on skin wounds is listed as “do not accumulate in normal, healthy organs except in the kidneys”. In the test with diabetic skin wounds, the “homing to skin wounds in diabetic mice” value is “home and penetrate to the granulation tissue”.
For “CPKKHHLDC [FAM-labeled synthetic peptide …]”, the “localisation in skin wound” value in the test with skin wounds (mouse day 7 wound) is “accumulated in wound regions containing blood vessels and in surrounding extravascular granulation tissue”. In addition, in the test on skin wounds, the “accumulation in normal organs” value is listed as “do not accumulate in normal, healthy organs except in the kidneys”. Moreover, in the test on diabetic skin wounds, the “homing to skin wounds in diabetic mice” value was “home and penetrate to the granulation tissue”.
For “CYHDTYPNC [FAM-labeled synthetic peptide …]”, the “localisation in skin wound” value in the test on skin wounds (mouse day 7 wound) is “accumulated in wound regions containing blood vessels and in surrounding extravascular granulation tissue”. The “accumulation in normal organs” value in the test on skin wounds is “do not accumulate in normal, healthy organs except in the kidneys”. Further, in the test with diabetic skin wounds, the “homing to skin wounds in diabetic mice” value was “home and penetrate to the granulation tissue”.
